What was measured:
[1] = IRDye 800CW used as standard; cited from earlier work
[2] = Photophysical properties (absorption, emission, fluorescence intensity, quantum yield) versus IRDye 800CW; assay type: physicochemical
[3] = Comparison of dye emission maxima and quenching; assay type: physicochemical; settings: IRDye 800CW samples, excitation 770 nm; for Peak fluorescence emission intensity: PBS pH 7.4; for Percent Quenching: versus dye-linker standard
Protocol: Solutions of dye-linker standards and dye-linker-quencher samples were diluted into PBS buffer (pH 7.4) to give a dye-specific absorbance less than 0.2 AU. The fluorescence spectra of each dilution were then taken at a consistent excitation wavelength (670 nm for HETD and 770 nm for IRDye 800CW). The emission spectra were collected from 680-1000 nm for the HETD samples and 780-1000 nm for the IRDye 800CW samples.

[4] = test system: U87GM cells; assay: Immunocytochemical binding, blocking and carboxylate control assay in U87GM cells; assay type: cell-based; settings: tested up to 5 μM, noted above 2 μM
Protocol: RGD (Arg-Gly-Asp), the recognition motif used to bind the integrin receptors, was labeled with compound 17. The characteristics of RGD/17 conjugate and the analogous dye carboxylate 16 were evaluated in a cell-based assay.
Immunocytochemical assays provide a tool for screening a compound for specificity of a labeled agent. Binding assays give valuable information on affinity of the labeled agent to the intended target.
Compound 17 was conjugated to the peptide RGD by the general procedure set forth in Example 32.
The cell lines U87GM and PC3MLN4 were assayed. Assays included binding, blocking, and carboxylate control. Serial dilutions of compound 16 were prepared at concentrations of 200-6.25 nM. Blocking was accomplished with unlabeled RGD at concentrations of 10-0.31 μM with the addition of 200 nM compound 17-RGD conjugates in all test wells. The compound 16 was evaluated as a dye control for non-specific binding at relatively high levels from 5-0.16 μM with U87GM cells and 1-0.002 μM with PC3 cells.
In the second round of testing with U87GM cells, concentrations of unlabeled RGD and compound 17/RGD were increased (FIGS. 8A and 8B). Binding assay concentrations utilized 0.8-400 nM while the blocking assay used 0.06-30 μM unlabeled RGD with an addition of 200 nM 17/RGD.

[5] = In vivo clearance imaging in nude mice (Pearl Impulse); settings: 1 nmole; for Total (signal): 800 channel
Protocol: Two nude mice were injected with 1 nmole of either compound 16 or IRDye 800CW carboxylate. They were then imaged longitudinally over the next 24 h with the Pearl Impulse imaging system. The results are presented in FIG. 9: in vivo clearance in nudes (FIG. 9A), whole body dorsal views (FIG. 9B), and the rate of clearance (FIG. 9C). The clearance data is presented below in Table 4.

[6] = Absorption wavelength of the cyanine dyes in methanol (halo substitution effect); assay type: physicochemical; settings: Table 2
Description: [table] Design Principle: We analyzed the properties of a dye scaffold and related compounds and the corresponding substitution effects on the excitation and emission wavelengths. The small size of fluorine is unlikely to produce steric effects, therefore, we explored the electronic effects of fluorine and related substitutions. The Hammett equation (σ-value) is an important tool to understand the electronic effects of the substituents, therefore, we explored the correlation of the wavelength (λMeOH) and the σ-value (vide infra): […]

CC1(C)C(=CC=C2CCCC(C=CC3=[N+](CCCCCC(=O)[O-])c4ccc(S(=O)(=O)[O-])cc4C3(C)C)=C2Oc2ccc(S(=O)(=O)[O-])cc2)N(CCCCS(=O)(=O)[O-])c2ccc(S(=O)(=O)[O-])cc21.[Na+].[Na+].[Na+].[Na+] [IRDye 800CW, reference compound]
Quantum Yield of the standard [1]: 0.07 | Fl Intensity of X / Fl Intensity of 800 CW, Odyssey ([2]; 0.1 μM solutions in 1XPBS, Odyssey): 100% | Fl Intensity of X / Fl Intensity of 800 CW, Fluorimeter ([2]; 0.1 μM solutions in 1XPBS, fluorimeter): 100% | Abs Max PBS ([2]; in PBS): 775 nm | EmMax PBS ([2]; in PBS): 790 nm

CC1(C)C(/C=C/C2=C(Oc3ccc(S(=O)(=O)[O-])cc3)C(=C/C=C3/N(CCCCS(=O)(=O)[O-])c4ccc(S(=O)(=O)[O-])cc4C3(C)C)/CCC2)=[N+](CCCCCC(=O)NCCOCCOCCOCCOCCOCCOCCOCCOCCOCCOCCOCCNC(=O)CCCCC[N+]2=C(/C=C/C3=C(c4ccccc4F)C(=C/C=C4/N(CCCS(=O)(=O)[O-])c5ccc(N(CCCS(=O)(=O)[O-])CCCS(=O)(=O)[O-])cc5C4(C)C)/CCC3)C(C)(C)c3c2ccc2cc(S(=O)(=O)[O-])ccc32)c2ccc(S(=O)(=O)[O-])cc21.[Na+].[Na+].[Na+].[Na+].[Na+].[Na+] [Compound 39]
Peak fluorescence emission intensity [3]: 438981 | Percent Quenching [3]: 65.5%

CC1(C)C(/C=C/C2=C(Oc3ccc(S(=O)(=O)[O-])cc3)C(=C/C=C3/N(CCCCS(=O)(=O)[O-])c4ccc(S(=O)(=O)[O-])cc4C3(C)C)/CCC2)=[N+](CCCCCC(=O)NCCOCCOCCOCCOCCOCCOCCOCCOCCOCCOCCOCCN)c2ccc(S(=O)(=O)[O-])cc21.O=C(O)C(F)(F)F.[Na+].[Na+].[Na+] [IRDye 800CW-PEG11-NH2]
Peak fluorescence emission intensity [3]: 1272820

CC1(C)C(/C=C/C2=C(Oc3ccc(S(=O)(=O)[O-])cc3)C(=C/C=C3/N(CCCCS(=O)(=O)[O-])c4ccc(S(=O)(=O)[O-])cc4C3(C)C)/CCC2)=[N+](CCCCCC(=O)NCCCOCCOCCOCCCNC(=O)CCCCC[N+]2=C(/C=C/C3=C(c4ccccc4F)C(=C/C=C4/N(CCCS(=O)(=O)[O-])c5ccc(N(CCCS(=O)(=O)[O-])CCCS(=O)(=O)[O-])cc5C4(C)C)/CCC3)C(C)(C)c3c2ccc2cc(S(=O)(=O)[O-])ccc32)c2ccc(S(=O)(=O)[O-])cc21.[Na+].[Na+].[Na+].[Na+].[Na+].[Na+] [Compound 38]
Peak fluorescence emission intensity [3]: 385983 | Percent Quenching [3]: 71.3%

CC1(C)C(/C=C/C2=C(c3c(F)cc(F)cc3F)C(=C/C=C3/N(CCCS(=O)(=O)[O-])c4ccc(S(=O)(=O)[O-])cc4C3(C)C)/CC(C(=O)O)C2)=[N+](CCCS(=O)(=O)[O-])c2ccc(S(=O)(=O)[O-])cc21.[Na+].[Na+].[Na+] (stereo not drawn) [Compound 16]
Non-specific binding of the dye component alone [4]: Relatively high binding | Total (signal) ([5]; 1 Min): 109682.80 | Total (signal) ([5]; 17 Min): 282046.59 | Total (signal) ([5]; 45 Min): 286573.94 | Total (signal) ([5]; 71 Min): 266647.59 | Total (signal) ([5]; 190 Min): 139736.97 | Total (signal) ([5]; 276 Min): 76493.30 | Total (signal) ([5]; 1435 Min): 1652.69 | Clearance in vivo ([5]; nude mice, imaged over 24 h): good clearance | λMeOH [6]: 785 nm

CC1(C)C(/C=C/C2=C(Oc3ccc(S(=O)(=O)[O-])cc3)C(=C/C=C3/N(CCCCCC(=O)NCCOCCOCCOCCN=[N+]=[N-])c4ccc(S(=O)(=O)[O-])cc4C3(C)C)/CCC2)=[N+](CCCCS(=O)(=O)[O-])c2ccc(S(=O)(=O)[O-])cc21.[Na+].[Na+].[Na+] [Compound 29, sodium 2-((E)-2-((E)-3-((E)-2-(1-(1-azido-13-oxo-3,6,9-trioxa-12-azaoctadecan-18-yl)-3,3-dimethyl-5-sulfonatoindolin-2-ylidene)ethylidene)-2-(4-sulfonatophenoxy)cyclohex-1-enyl)vinyl)-3,3-dimethyl-1-(4-sulfonatobutyl)-3H-indolium-5-sulfonate]
Peak fluorescence emission intensity [3]: 1245060
